From patent US7326684B2, “Peptides for enhancing resistance to microbial infections” (priority 2002, dated 2008)
Like-named read-outs stand apart in the source and are kept apart here. *1 amine or outer side, *2 acyl side, *3 side chain or, on linkers, in order; H or OH if unused. Where a SMILES comes first, the peptide text is derived from it. Where no end group is shown, it is not given here. [ ]: non-standard residue; d: D form. Tyr(3-125I) = 3-[125I]iodotyrosine, O=C([C@H](Cc1ccc(O[*:3])c([125I])c1)N[*:1])[*:2]; Tyr(3-I) = N[C@@H](Cc1ccc(O)c(I)c1)C(=O)O

Legend:
[1] = system: mouse peritoneal macrophages infected with S. typhimurium 415; assay: Combined action of streptomycine and peptide on digestion of S. typhimurium 415 by mouse peritoneal macrophages in vitro; conditions: streptomycine 50 μg/ml alone or 10 μg/ml + peptide 1 nM
[2] = molecular target: non-opioid receptors for β-endorphin on T lymphocytes; format: binding, human
[3] = system: T lymphocytes from the blood of healthy donors; assay: Con A-induced proliferation of T lymphocytes; format: cell-based, human
[4] = molecular target: non-opioid receptors for β-endorphin on T lymphocytes; format: binding, human; conditions: for Ki: read-out: Ki, inhibition of [125I]β-endorphin binding
in vivo = conditions: BCA, mouse, ip
[5] = mouse, in vivo
[6] = system: mouse peritoneal macrophages infected with S. typhimurium 415; assay: Phagocytosis (digestion) of S. typhimurium 415 by mouse peritoneal macrophages in vitro; conditions: for Time within which phagocytes completely digested the captured microbes: peptide 1 nM; for BCA, bacterial cytocidal activity, percentage of phagocytes destroyed by intracellular bacteria / PA, phagocytic activity, percentage of macrophages participating in phagocytosis / PN, phagocytic number, average number of microbes per macrophage: tuftsin 100 nM, ± SEM
[7] = molecular target: high-affinity (non-opioid) β-endorphin receptors on murine peritoneal macrophages; conditions: read-out: Ki, inhibition of [125I]β-endorphin binding to non-opioid receptors
[8] = molecular target: non-opioid (naloxone-insensitive) receptors for β-endorphin on T lymphocytes from normal human blood (human); assay: radioligand saturation binding on human T lymphocytes, Scatchard plot, in the absence of naloxone
[9] = molecular target: non-opioid (naloxone-insensitive) receptors for β-endorphin on T lymphocytes from normal human blood (human); assay: radioligand saturation binding on human T lymphocytes, Scatchard plot, in the presence of naloxone
[10] = molecular target: non-opioid (naloxone-insensitive) receptors for β-endorphin on T lymphocytes from normal human blood (human); assay: displacement of 1 nM [125I]β-endorphin from human T lymphocytes; Ki=IC50/(1+[L]/Kd)
[11] = molecular target: non-opioid (naloxone-insensitive) receptors for β-endorphin on T lymphocytes from normal human blood (human); assay: radioligand saturation binding on human T lymphocytes, 4 °C, Scatchard analysis
[12] = molecular target: non-opioid (naloxone-insensitive) receptors for β-endorphin on T lymphocytes from normal human blood (human); assay: radioligand saturation binding on human T lymphocytes, Scatchard analysis, one-site model
[13] = read-out: Kd of labeled peptide binding to T lymphocytes
[14] = T lymphocytes of healthy donors
[15] = phagocytosis time 1 h, pentarphin, cyclopentarphin 1 nM
[16] = phagocytosis time 2 h, pentarphin, cyclopentarphin 1 nM
[17] = phagocytosis time 4 h, pentarphin, cyclopentarphin 1 nM
[18] = phagocytosis time 7 h, pentarphin, cyclopentarphin 1 nM
[19] = phagocytosis time 12 h, pentarphin 1 nM

[H]/N=C(/N)N[C@H]1[C@H](O)[C@@H](O)[C@H](O[C@@H]2O[C@@H](C)[C@](O)(C=O)[C@H]2O[C@@H]2O[C@@H](CO)[C@H](O)[C@@H](O)[C@@H]2NC)[C@@H](N/C(N)=N\[H])[C@@H]1O [Streptomycine]
BCA, bacterial cytocidal activity ([1]; phagocytosis time 1 h, ± SEM): 1.04 ± 0.32%
PA, phagocytic activity ([1]; phagocytosis time 1 h, ± SEM): 86.45 ± 2.13%
PN, phagocytic number ([1]; phagocytosis time 1 h, ± SEM): 8.56 ± 0.76 n
BCA, bacterial cytocidal activity ([1]; phagocytosis time 2 h, ± SEM): 1.12 ± 0.74%
PA, phagocytic activity ([1]; phagocytosis time 2 h, ± SEM): 96.17 ± 1.76%
PN, phagocytic number ([1]; phagocytosis time 2 h, ± SEM): 2.03 ± 0.46 n
BCA, bacterial cytocidal activity ([1]; phagocytosis time 4 h): 0%
PA, phagocytic activity ([1]; phagocytosis time 4 h): 0%
PN, phagocytic number ([1]; phagocytosis time 4 h): 0 n

CC(C)[C@H](N)C(=O)N[C@@H](CCCCN)C(=O)NCC(=O)N[C@@H](Cc1ccccc1)C(=O)N[C@@H](Cc1ccc(O)c(I)c1)C(=O)O [[^125I]-H-VKGFY-OH] (H-VKGF[Tyr(3-I)]-OH)
Kd [2, 13]: 36.3 ± 0.5 nM

CC(C)C[C@H](NC(=O)[C@H](CS)NC(=O)[C@@H](NC(=O)[C@H](CC(C)C)NC(=O)[C@@H](N)CO)[C@@H](C)O)C(=O)N[C@H](C(=O)N[C@@H](CCCCN)C(=O)NCC(=O)N[C@@H](Cc1ccccc1)C(=O)N[C@@H](Cc1ccc(O)c(I)c1)C(=O)O)C(C)C [[^125I]-immunorphin] (H-SLTCLVKGF[Tyr(3-I)]-OH)
Kd [2, 13]: 7 ± 0.3 nM
Kd ([2]; read-out: Kd of labeled peptide binding to T lymphocytes in the presence of naloxone): 7.4 ± 0.2 nM

C=CCN1CC[C@]23c4c5ccc(O)c4O[C@H]2C(=O)CC[C@@]3(O)[C@H]1C5 [naloxone]
Effect on Con A-induced proliferation of T lymphocytes [3, 14]: not active

H-CLVKGFY-OH [H-CLVKGFY-OH]
Ki [4]: 3.4 nM

H-LTCLVKGFY-OH
Ki [4]: 1 nM

H-LVKGFY-OH [H-LVKGFY-OH]
Ki [4]: 8 nM

H-TCLVKGFY-OH
Ki [4]: 2.2 nM

H-VKGFY-OH [Pentarphin, Val-Lys-Gly-Phe-Tyr]
Effect on Con A-induced proliferation of T lymphocytes [3]: stimulate
Stimulating effect on T lymphocyte proliferation in presence of naloxone [3]: not inhibited by naloxone
LD50 (in vivo): 2500 mg/kg
Immunogenicity [5]: No immunogenicity
Time within which phagocytes completely digested the captured microbes [6]: ≤ 12 h
BCA, bacterial cytocidal activity, percentage of phagocytes destroyed by intracellular bacteria [6, 15]: 1.08 ± 0.71%
PA, phagocytic activity, percentage of macrophages participating in phagocytosis [6, 15]: 84.08 ± 2.12%
PN, phagocytic number, average number of microbes per macrophage [6, 15]: 7.11 ± 0.15 n
BCA, bacterial cytocidal activity, percentage of phagocytes destroyed by intracellular bacteria [6, 16]: 1.55 ± 0.65%
PA, phagocytic activity, percentage of macrophages participating in phagocytosis [6, 16]: 89.15 ± 1.78%
PN, phagocytic number, average number of microbes per macrophage [6, 16]: 9.29 ± 0.74 n
BCA, bacterial cytocidal activity, percentage of phagocytes destroyed by intracellular bacteria [6, 17]: 9.32 ± 1.32%
PA, phagocytic activity, percentage of macrophages participating in phagocytosis [6, 17]: 66.82 ± 1.14%
PN, phagocytic number, average number of microbes per macrophage [6, 17]: 6.02 ± 0.66 n
PA, phagocytic activity, percentage of macrophages participating in phagocytosis [6, 18]: 23.31 ± 0.84%
PN, phagocytic number, average number of microbes per macrophage [6, 18]: 1.03 ± 0.24 n
BCA, bacterial cytocidal activity, percentage of phagocytes destroyed by intracellular bacteria [6, 19]: 2.35 ± 1.21%
PA, phagocytic activity, percentage of macrophages participating in phagocytosis [6, 19]: 3.73 ± 0.64%
PN, phagocytic number, average number of microbes per macrophage [6, 19]: 0.66 ± 0.12 n
Ki [7]: 12 nM
Ki [4]: 15 nM
Kd [2, 13]: 36.3 ± 0.5 nM

SLTCLVKGFY [immunorphin]
Effect on Con A-induced proliferation of T lymphocytes [3, 14]: stimulate

Thr-Lys-Pro-Arg (TKPR; printed: Thr-Lys-Pro-Arg) [Tuftsin, reference compound]
BCA, bacterial cytocidal activity, percentage of phagocytes destroyed by intracellular bacteria [6, 15]: 1.41 ± 0.27%
PA, phagocytic activity, percentage of macrophages participating in phagocytosis [6, 15]: 66.07 ± 1.82%
PN, phagocytic number, average number of microbes per macrophage [6, 15]: 5.84 ± 0.27 n
BCA, bacterial cytocidal activity, percentage of phagocytes destroyed by intracellular bacteria [6, 16]: 8.12 ± 0.99%
PA, phagocytic activity, percentage of macrophages participating in phagocytosis [6, 16]: 74.11 ± 1.42%
PN, phagocytic number, average number of microbes per macrophage [6, 16]: 7.31 ± 0.25 n
BCA, bacterial cytocidal activity, percentage of phagocytes destroyed by intracellular bacteria [6, 17]: 29.34 ± 0.75%
PA, phagocytic activity, percentage of macrophages participating in phagocytosis [6, 17]: 61.97 ± 1.18%
PN, phagocytic number, average number of microbes per macrophage [6, 17]: 6.29 ± 0.48 n
BCA, bacterial cytocidal activity, percentage of phagocytes destroyed by intracellular bacteria [6, 18]: 31.46 ± 1.23%
PA, phagocytic activity, percentage of macrophages participating in phagocytosis [6, 18]: 38.48 ± 0.23%
PN, phagocytic number, average number of microbes per macrophage [6, 18]: 3.32 ± 0.56 n
BCA, bacterial cytocidal activity, percentage of phagocytes destroyed by intracellular bacteria [6, 19]: 7.64 ± 1.38%
PA, phagocytic activity, percentage of macrophages participating in phagocytosis [6, 19]: 9.31 ± 0.29%
PN, phagocytic number, average number of microbes per macrophage [6, 19]: 1.36 ± 0.86 n
Activity, times lower than pentarphin/cyclopentarphin ([6]; tuftsin acted the same way at 100 nM versus 1 nM): 100 times

[125I]-immunorphin (peptide)
Kd [8]: 7 nM
Kd [9]: 7.4 nM

[Met^5]enkephalin [Met-enkephalin, reference compound]
Effect on Con A-induced proliferation of T lymphocytes [3]: not active
Inhibition of β-endorphin binding in displacement assay [4]: not inhibited

cyclo(Val-Lys-Gly-Phe-Tyr) (VKGFY; cyclic; printed: Val-Lys-Gly-Phe-Tyr) [Cyclopentarphin]
Time within which phagocytes completely digested the captured microbes [6]: ≤ 7 h
BCA, bacterial cytocidal activity, percentage of phagocytes destroyed by intracellular bacteria [6, 15]: 1.25 ± 0.64%
PA, phagocytic activity, percentage of macrophages participating in phagocytosis [6, 15]: 87.81 ± 3.14%
PN, phagocytic number, average number of microbes per macrophage [6, 15]: 7.78 ± 0.39 n
BCA, bacterial cytocidal activity, percentage of phagocytes destroyed by intracellular bacteria [6, 16]: 1.06 ± 0.49%
PN, phagocytic number, average number of microbes per macrophage [6, 16]: 8.81 ± 0.27 n
BCA, bacterial cytocidal activity, percentage of phagocytes destroyed by intracellular bacteria [6, 17]: 2.13 ± 0.60%
PA, phagocytic activity, percentage of macrophages participating in phagocytosis [6, 17]: 57.43 ± 2.01%
PN, phagocytic number, average number of microbes per macrophage [6, 17]: 5.32 ± 0.51 n
BCA, bacterial cytocidal activity, percentage of phagocytes destroyed by intracellular bacteria [6, 18]: 2.22 ± 1.31%
PA, phagocytic activity, percentage of macrophages participating in phagocytosis [6, 18]: 1.74 ± 0.44%
PN, phagocytic number, average number of microbes per macrophage [6, 18]: 0.27 ± 0.20 n

immunorphin (H-…-OH) (peptide)
Ki [10]: 0.6 nM

H-TCLVKGFY-OH [H-TCLVKGFY-OH]
Ki [10]: 2.2 nM

H-VKGFY-OH [pentarphin (H-VKGFY-OH)]
Ki [10]: 15 nM

YGGFMTSEKSQTPLVTLFKNAIIKNA[Tyr(3-125I)]KKGE [(3-[125I]iodotyrosyl27)β-endorphin]
Kd [11]: 0.25 nM

H-VKGFY-OH (also: 125I label, residue not given here) [[125I]-H-VKGFY-OH]
Kd [12]: 36.3 nM

H-CLVKGFY-OH [H-CLVKGFY-OH]
Ki [10]: 3.4 nM

H-LTCLVKGFY-OH [H-…-OH]
Ki [10]: 1 nM

H-LVKGFY-OH [H-LVKGFY-OH]
Ki [10]: 8 nM
